Here are results for 3 molecules from patent publication US10421773B2, “Bone-selective osteogenic oxysterol bisphosphonate analogs” (The Regents of the University of California, priority 2014, dated 2019).

Data set [1] concerns M2-10B4 osteoprogenitor cells. Nature of the data set: Osteogenic gene expression (ALP, BSP, OSX) in M2-10B4 cells. The format is cell-based. The note with it: 6 and 14 days of treatment, compared with untreated control cells and unconjugated OXY133, ranking within each linker series. As to the method: (§1) Oxy133-ALN conjugates were tested in M2-10B4 osteoprogenitor cells to ascertain osteogenic activity and confirm their mechanism of action in inducing osteogenic differentiation. Alkaline phosphatase (ALP) activity, induction of the expression of osteogenic differentiation marker genes (ALP; bone sialoprotein (BSP); and osterix (OSX)), and ^45Ca incorporation as a measure of extracellular matrix mineralization were assayed by our previously reported protocols. The inventors have shown that these in vitro assays translate into in vivo stimulation of bone formation in a variety of animal models. The gene expression for ALP, BSP and OSX induced by the OXY133-ALN conjugates were measured after 6 and 14 days of treatment, the results after 6 days are shown in FIG. 1.
(§2) The succinate-linked series (Oxy166, Oxy167, Oxy174) and the carbamate series (Oxy175, Oxy176, and Oxy177) were assayed as groups. […] It may be that OXY133 must be released from the OXY133-ALN conjugates in order to induce osteogenic gene expression. […] A quantitative ^45Ca mineralization assay was performed with analogues and unconjugated OXY133 over a 30-day incubation period in M2 cells as shown in FIG. 2.

For data set [2], the system named is M2-10B4 osteoprogenitor cells. Nature of the data set: Alkaline phosphatase (ALP) activity induction. The format is cell-based. The note with it: M2-10B4 cells; result mirrored the gene expression ranking. As to the method:
as §1, §2

The nature of data set [3]: Hydroxyapatite (HAP) binding assay, NMR readout. The note with it: in D2O, internal integration standard maleic acid, low HAP loading (FIG. 4C). As to the method:
The bone binding properties of bisphosphonates are due to their affinity for calcium in hydroxyapatite (HAP). Relative HAP binding capacity can be measured by incubating a solution of an analyte with HAP and measuring the proportion of compound remaining in the supernatant. […] Reliable quantification of a range of analytes can be obtained by using an inverse-gated decoupling pulse sequence and sufficiently long relaxation delays (d1).
The HAP binding assay was carried out under the following conditions: 1 mL of 4 mM analyte in 50 mM tris buffer at pH 7.5 is incubated with HAP (or no HAP for control) by inversion for 15 minutes. […] The procedure is illustrated in FIG. 3A.
The binding strengths of the OXY133-ALN conjugates of the present invention relative to ALN were determined and any differences in binding affinity contributed by the degree (mono- vs. bis-ALN linked conjugates), position (C3-OH vs. C6-OH), and nature (succinate vs. glycinate) of the Oxy133-ALN conjugates noted. ALN was used as a positive control and benzyl phosphonic acid (BnP) as an established negative control. 600 mg of HAP was used for the “large HAP loading” condition (FIG. 4A) and 150 mg of HAP was used for the “low HAP loading” condition (FIG. 4B).
Experimental conditions: 1 mL of 4 mM analyte in 50 mM tris buffer pH 7.5 is incubated with specified amount of HAP (or no HAP for control) by inversion for 15 min. […]

The next data set concerns bone disease models. The note with it: rabbit spine fusion and rabbit calvarial defect models; cited from earlier work.
Data set [4] in a line: Half-life in human liver microsomes. The format is in vitro ADME. Conditions: HLM.
For data set [5], the system named is human primary mesenchymal stem cells. Conditions: cited from earlier work.
The test system of the next data set is spine fusion. The note with it: compared to other analogues; cited from earlier work.

In the case of `CCCCCC[C@](C)(O)[C@H]1CC[C@H]2[C@@H]3C[C@H](OC(=O)NCC(=O)NCCCC(O)(P(=O)(O)O)P(=O)(O)O)[C@H]4C[C@@H](O)CC[C@]4(C)[C@H]3CC[C@@]21C` [Oxy175], the “induction of osteogenic gene expression (ALP, BSP, OSX)” value in data set [1] is “most active”. Further, in data set [2], the ALP activity induction entry is listed as “most active”.

With `CCCCCC[C@](C)(O)[C@H]1CC[C@H]2[C@@H]3C[C@H](O)[C@H]4C[C@@H](OC(=O)NCC(=O)NCCCC(O)(P(=O)(O)O)P(=O)(O)O)CC[C@]4(C)[C@H]3CC[C@@]21C` [Oxy177], the “HAP binding affinity, 1H-NMR method” value in data set [3] is given as “binding affinity equivalent to the rest of the OXY-ALN series”.

Turning to `CCCCCC[C@](C)(O)[C@H]1CC[C@H]2[C@@H]3C[C@H](O)[C@H]4C[C@@H](O)CC[C@]4(C)[C@H]3CC[C@@]21C` [OXY133], in the data set with bone disease models, the “osteogenesis in non-rodent models of bone disease” value is on record as “induce robust osteogenesis”. The same molecule returned a half-life in data set [4] below 5 min. The “osteogenesis in cultured human primary mesenchymal stem cells” value in data set [5] is on record as “induce osteogenesis”. Also, the “spine fusion in rats” value in the data set on spine fusion was “induce spine fusion in rats in an accelerated manner”.
